Like-named read-outs stand apart in the source and are kept apart here. Blank lines part the entries; values can stand above or below the compound they belong to.
What was measured:
[1] = Body weight in Compound 1 PC3 xenograft efficacy studies; type: in vivo, SCID mice
Experimental: The BID dose groups were dosed with a 10-hour separation between the morning and evening doses. […] At the end of each study, plasma and/or tumor samples were collected.
Initial body weights were recorded prior to the initiation of treatment using a digital scale. The percent body weight change during the course of the study was calculated using initial body weight measurements. Body weights of each animal were measured twice a week at the same time that tumor measurements were taken. Body weights were measured more frequently if significant decreases were noted during the course of the study.

[2] = system: Ki-67; assay: Ki-67 immunohistochemistry in PC3 tumors (Compound 1); type: in vivo, SCID mice; conditions: 25 mg/kg oral QD for 6 days, 2 hours after last dose
Experimental: Two hours after the last dose of either vehicle, Compound 1, or rapamycin, the mice were euthanized and the tumors were dissected. The tumors were snap frozen in liquid nitrogen and processed for immunohistochemistry (IHC) and TUNEL.
Five to ten micron thick cryostat sections of tumor samples were used for IHC. The expression of a cell proliferation marker Ki-67 was evaluated by IHC using anti-Ki-67 antibody. Anti-CD-31 antibody was used to determine blood vessel density and is a measurement of tumor angiogenesis. Frozen sections were fixed in 4% paraformaldehyde for 10 minutes at room temperature, washed in PBS, blocked and permeabilized with normal goat serum and triton x-100. Sections were then incubated with primary antibody (overnight) followed by incubation with secondary antibody (60 minutes). […] The sections were visualized with a Nikon E800 microscope equipped with fluorescence detection equipment and a digital camera attached to a computer.
The tissues sections processed for apoptosis or immunostained for proliferating cells (Ki-67) or blood vessels were quantitated using Metamorph software. Using 20× objective, 5 different fields from each section, 2 to 4 sections from each tumor, and 3 to 4 tumors from each treatment group or control were used for quantitation. The area of interest was expressed as the percent threshold area of the total area.

[3] = system: PRAS40 (T246); assay: Phospho-PRAS40 (T246) in PC-3 cell lysates, MSD (Compound 2); type: cell-based; conditions: Homo sapiens; PC-3, 1 hour; read-out: mTORC2 PRAS40 (T246) IC50
Experimental: The direct substrate for mTORC1 was 4E-BP1(T46) and the indirect downstream substrate was S6RP (S235/S236). The direct substrate for mTORC2 was AKT (S473) and the indirect downstream substrates measured were GSK3β(S9) and PRAS40 (T246). Additionally, the phosphorylation status of AKT (T308), a phosphorylation site for PDK1, was monitored. Concentration-response curves were plotted and IC50 values determined. Cells were plated in 96-well flat bottom plates at the required density (PC-3 cells/well) and the cells were allowed to equilibrate at 37° C., 5% CO2 overnight. […] After the incubation period, the culture media was removed carefully with an aspirator. The plate was placed on ice and 50 μL of 1× Tris Lysis Buffer was added to each well. The plate was placed on a shaker at 4° C. for 1 hour to lyse the cells. At that point, the plate was either frozen at -80° C. for later analysis or immediately assayed for phosphoproteins as described below. To monitor interassay variability, a reference standard was included in the assay for PC-3 cells and the coefficient of variation for assay of […]) was 9.3% (n=50) and for assay of p-AKT (S473) was 28.6% (n=50). The assay plate was incubated with 150 μL of MSD Blocking Buffer for 1 hour with shaking at room temperature. […] Then 150 μL of 1×MSD Read Buffer T was added to each well. The plate was read on the SECTOR Imager plate reader.

[4] = system: pAKT (S473); assay: pAKT (S473) in PC3 tumors, MSD (Compound 2); type: in vivo, SCID mice; conditions: Mus musculus; for inhibition at 0.1 mg/kg: 0.1 mg/kg single oral dose; for inhibition at 0.3 mg/kg: 0.3 mg/kg single oral dose; for inhibition at 10 mg/kg: 10 mg/kg single oral dose
[5] = 0.5 h, read-out: PD Marker Inhibition (%) pAKT (S473)
[6] = 1 h, read-out: PD Marker Inhibition (%) pAKT (S473)
[7] = 3 h, read-out: PD Marker Inhibition (%) pAKT (S473)
[8] = 6 h, read-out: PD Marker Inhibition (%) pAKT (S473)
[9] = 10 h, read-out: PD Marker Inhibition (%) pAKT (S473)
[10] = 24 h, read-out: PD Marker Inhibition (%) pAKT (S473)

SMILES: CO[C@H]1CC[C@H](N2C(=O)CNc3ncc(-c4ccc(C(C)(C)O)nc4)nc32)CC1 [Compound 1, 7-(6-(2-hydroxypropan-2-yl)pyridin-3-yl)-1-((1r,4r)-4-methoxycyclohexyl)-3,4-dihydropyrazino-[2,3-b]pyrazin-2(1H)-one]
- change in body weight ([1]; 10 mg/kg QD, 3 weeks, data not shown): No significant change
- loss of initial body mass ([1]; 25 mg/kg QD, end of the first cycle): approximately 10%
- body weight loss ([1]; 25 mg/kg QD, intermittent dosing study period): about 10%
- body weight change ([1]; 25 mg/kg QD, second dosing cycle): about 5%
- loss of initial body weight ([1]; regression study, 25 mg/kg QD, by Day 26, euthanized): over 19%
- reduction in the number of proliferating cells (Ki-67) vs vehicle [2]: 84%

- IC50 [3]: 49 nM
SMILES: CCN1C(=O)CNc2ncc(-c3ccc(-c4nc[nH]n4)nc3C)nc21 [Compound 2, 1-ethyl-7-(2-methyl-6-(1H-1,2,4-triazol-3-yl)pyridin-3-yl)-3,4-dihydropyrazino[2,3-b]pyrazin-2(1H)-one]
- inhibition at 0.1 mg/kg [4, 5]: 50%
- inhibition at 0.1 mg/kg [4, 6]: 25.1%
- inhibition at 0.1 mg/kg [4, 7]: 15.3%
- inhibition at 0.1 mg/kg [4, 8]: 14.2%
- inhibition at 0.1 mg/kg [4, 9]: 2.5%
- inhibition at 0.1 mg/kg [4, 10]: 0%
- inhibition at 0.3 mg/kg [4, 5]: 77.2%
- inhibition at 0.3 mg/kg [4, 6]: 70.7%
- inhibition at 0.3 mg/kg [4, 7]: 52.9%
- inhibition at 0.3 mg/kg [4, 8]: 42.2%
- inhibition at 0.3 mg/kg [4, 9]: 23%
- inhibition at 0.3 mg/kg [4, 10]: 9.6%
- inhibition at 1 mg/kg ([4]; 1 mg/kg single dose, through 10 hours, read-out: inhibition of pAKT (S473) in tumor): ~65%
- inhibition at 1 mg/kg ([4]; 1 mg/kg single oral dose, 1 h, read-out: PD Marker Inhibition (%) pAKT (S473)): 79.6%
- inhibition at 1 mg/kg ([4]; 1 mg/kg single oral dose, 3 h, read-out: PD Marker Inhibition (%) pAKT (S473)): 65.1%
- inhibition at 1 mg/kg ([4]; 1 mg/kg single oral dose, 6 h, read-out: PD Marker Inhibition (%) pAKT (S473)): 69.9%
- inhibition at 1 mg/kg ([4]; 1 mg/kg single oral dose, 10 h, read-out: PD Marker Inhibition (%) pAKT (S473)): 65.5%
- inhibition at 1 mg/kg ([4]; 1 mg/kg single oral dose, 24 h, read-out: PD Marker Inhibition (%) pAKT (S473)): 19%
- inhibition at 10 mg/kg [4, 6]: 87.6%
- inhibition at 10 mg/kg [4, 7]: 88.3%
- inhibition at 10 mg/kg [4, 8]: 86.9%
- inhibition at 10 mg/kg [4, 9]: 86%
- inhibition at 10 mg/kg [4, 10]: 79.8%

From patent publication US20140113904A1, “TREATMENT OF CANCER WITH TOR KINASE INHIBITORS” (SIGNAL PHARMACEUTICALS, LLC, priority 2012, published 2014)
